test system: islet-like structures; test: Glucose-stimulated insulin release and insulin content of islet-like structures; format: cell-based; details: 3 mM or 20 mM glucose, factor added to culture
Method: After the complete differentiation protocol described in detail in Example 2, the islet-like structures were cultured in the presence of either 3 mM glucose or 20 mM glucose to assay for glucose-stimulated insulin release. Insulin release and total insulin content were measured using standard methods. Additionally, factors were added to the culture of islet-like structures.

Molecule	responsiveness of islet-like structures to high glucose (insulin release)
Indian hedgehog	increased the responsiveness
NC(=O)c1cccnc1 [nicotinamide, reference compound]	increased the responsiveness
Sonic hedgehog	increased the responsiveness
leptin	increased the responsiveness
Desert hedgehog	increased the responsiveness
exendin-4 [reference compound]	increased the responsiveness
CC(C)(COP(=O)(O)OP(=O)(O)OC[C@H]1O[C@@H](n2cnc3c(N)ncnc32)[C@H](O)[C@@H]1OP(=O)(O)O)[C@@H](O)C(=O)NCCC(=O)NCCSC(=O)CC(=O)O [malonyl CoA, reference compound]	increased the responsiveness

Source: patent US20040110287A1, “Multi-step method for the differentiation of insulin positive, glucose responsive cells” (ES Cell International Pte Ltd., priority 2002, published 2004)
